US6071899A, “Azetidinone derivatives for the treatment of atherosclerosis” (SmithKline Beecham p.l.c., priority 1994, dated 2000)

What was measured:
[1] = target: T1, Lp-PLA2 (Homo sapiens, UniProt Q13093); assay: Screen for Lp-PLA2 inhibition; assay type: biochemical; settings: artificial substrate (A) 20 μM, 37° C., pH 7.4, 10 min pre-incubation, 405 nm; enzyme partially purified from human plasma
T1 construct: Lp-PLA2 was partially purified by density gradient centrifugation of human plasma; from tissue; host or cells: human plasma (pooled active fractions, partially purified)
T1 sequence (Q13093 22-441): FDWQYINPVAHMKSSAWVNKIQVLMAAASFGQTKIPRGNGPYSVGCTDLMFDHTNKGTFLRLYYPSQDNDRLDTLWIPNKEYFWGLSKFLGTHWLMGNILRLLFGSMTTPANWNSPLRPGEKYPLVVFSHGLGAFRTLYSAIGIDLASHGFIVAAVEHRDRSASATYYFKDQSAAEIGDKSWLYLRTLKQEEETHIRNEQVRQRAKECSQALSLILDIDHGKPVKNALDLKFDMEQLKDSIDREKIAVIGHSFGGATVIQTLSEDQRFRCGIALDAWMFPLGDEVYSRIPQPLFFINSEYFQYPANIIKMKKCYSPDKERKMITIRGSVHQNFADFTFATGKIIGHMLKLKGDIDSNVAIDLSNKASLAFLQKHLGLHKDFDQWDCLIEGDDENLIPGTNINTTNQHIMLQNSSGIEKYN
Procedure: 1. Screen for Lp-PLA2 inhibition.
Enzyme activity was determined by measuring the rate of turnover of the artificial substrate (A) at 37° C. in 50 mM HEPES (N-2-hydroxyethylpiperazine-N'-2-ethanesulphonic acid) buffer containing 150 mM NaCl, pH 7.4. [drawing 7] Assays were performed in 96 well titre plates.
Lp-PLA2 was partially purified by density gradient centrifugation of human plasma. Active fractions were pooled and used as the source of Lp-PLA2. The enzyme was pre-incubated at 37° C. with vehicle or test compound for 10 min in a total volume of 180 μl. The reaction was then initiated by the addition of 20 μl 10× substrate (A) to give a final substrate concentration of 20 μM. The reaction was followed at 405 nm for 20 minutes using a plate reader with automatic mixing. The rate of reaction was measured as the rate of change of absorbance.

[2] = tested on: lyso-PtdCho formation in human LDL; assay: Inhibition of Cu2+ stimulated lyso-phosphatidylcholine (lyso-PtdCho) formation; assay type: biochemical; settings: 5 μM Cu2+
Procedure: 2. Inhibition of Cu 2+stimulated lyso-phosphatidylcholine (lyso-PtdCho) formation.
A 1 ml aliquot of human LDL (0.25 mg protein/ml) was incubated for 15 min at 37° C. with compound or vehicle. 5 μM Cu^2+ was then added to allow oxidation/lyso-PtdCho formation to occur. The incubation was terminated by the addition of 3.75 ml chloroform/methanol/c HCl (200:400:5,v/v/v). Following the addition of 1.25 ml chloroform and 1.25 ml 0.1M HCl, the mixture was vortexed and centrifuged. The lower phase was carefully removed and the upper phase re-extracted with an equal volume of synthetic lower phase. The extracts were pooled and dried under nitrogen.
Phospholipids were reconstituted into 50 μl chloroform/methanol (2:1 v/v). 10 μl aliquots were spotted on to pre-run silica gel HPTLC plates and then developed in chloroform/methanol 25-30% methylamine (60:20:5 v/v/v). Plates were subsequently sprayed with the flourescent indicator, 2-p-toluidinylnaphthalene-6-sulphonic acid (1 mM in 50 mM Tris/HCl, pH 7.4) to identify phospholipid components. Fluorescence was measured at 222 nm using a CAMAG TLC scanner. Lipoprotein lyso-PtdCho content was quantified using a standard curve (0.05-0.5 μg) prepared in parallel.

Row | Compound | IC50 [1] [µM] | IC50 ([2]; human LDL 0.25 mg protein/ml, 15 min pre-incubation at 37° C., read-out: IC50 (inhibition of LDL lyso-PtdCho accumulation stimulated by copper ions)) [µM] | inhibition of LDL lyso-PtdCho accumulation stimulated by copper ions (in words) ([2]; human LDL)
1 | CCCCCC[S+]([O-])C1CC(=O)N1CC(=O)NCCCCCCc1ccccc1 (single isomer, unassigned) [Example 79, N-(6-Phenylhexyl)-(4-n-hexylsulfinyl-2-oxoazetidin-1-yl)acetamide] | 0.03 to 0.4 | – | –
2 | CCCCCC[S+]([O-])C1CC(=O)N1CC(=O)CCc1ccccc1 (single isomer, unassigned) [Example 24, 4-Hexylsulfinyl-1-(4-phenyl-2-oxobutyl)azetidin-2-one] | 0.03 to 0.4 | – | –
3 | C[C@@H]1C(=O)N(CC(=O)NCCCCCCc2ccccc2)[C@H]1[S+](C)[O-] (relative stereo) [Example 71, trans-N-(6-phenylhexyl)-(3-methyl-4-methylsulphinyl-2-oxoazetidin-1-yl)acetamide] | 0.03 to 0.4 | ~0.06 | dose dependently inhibits

The next lines start with results.

Row | IC50 [1] [µM] | IC50 ([2]; human LDL 0.25 mg protein/ml, 15 min pre-incubation at 37° C., read-out: IC50 (inhibition of LDL lyso-PtdCho accumulation stimulated by copper ions)) [µM] | Compound | inhibition of LDL lyso-PtdCho accumulation stimulated by copper ions (in words) ([2]; human LDL)
4 | 0.03 to 0.4 | – | C[S+]([O-])C1CC(=O)N1CCCCc1ccccc1 (centres unmarked) [Example 84, 4-Methylsulfinyl-1-(4-phenylbutyl)-azetidin-2-one] | –
5 | 0.03 to 0.4 | – | C[S+]([O-])C1CC(=O)N1CC(=O)NCCCCCCc1ccccc1 (centres unmarked) [Example 63, N-6-Phenylbexyl-(4-methylsulphinyl-2-oxoazetidin-1-yl)acetamide] | –
6 | 0.03 to 0.4 | – | CCCC[S+]([O-])C1CC(=O)N1CC(=O)CCc1ccccc1 (centres unmarked) [Example 18, 4-Butylsulfinyl-1-(4-phenyl-2-oxobutyl)azetidin-2-one] | –
